Results reported in patent US5179088A, “1-Carba(dethia)cephalosporin antibiotics” (Eli Lilly and Company, priority 1990, dated 1993).

Columns and labels:
Format in all cases: cell-based
Set-up in all cases: unit not given here
[1] = system: Staphylococcus Aureus; assay: in vitro antibacterial activity, agar dilution (Staphylococcus aureus)
Procedure: (§1) *minimum inhibitory concentrations were determined by the Agardilution

[2] = system: Staphylococcus Epi; assay: in vitro antibacterial activity, agar dilution (Staphylococcus epi)
Procedure: as §1

[3] = system: Streptococcus A; assay: in vitro antibacterial activity, agar dilution (Streptococcus A)
Procedure: as §1

[4] = system: Streptococcus pn; assay: in vitro antibacterial activity, agar dilution (Streptococcus pn); settings: strain PARK
Procedure: as §1

[5] = system: Streptococcus D; assay: in vitro antibacterial activity, agar dilution (Streptococcus D)
Procedure: as §1

[6] = system: H. Influ.; assay: in vitro antibacterial activity, agar dilution (H. influ.)
Procedure: as §1

[7] = system: E. coli; assay: in vitro antibacterial activity, agar dilution (E. coli)
Procedure: as §1

[8] = system: Klebsiella; assay: in vitro antibacterial activity, agar dilution (Klebsiella)
Procedure: as §1

[9] = system: Enterbacter Aerogenes; assay: in vitro antibacterial activity, agar dilution (Enterobacter aerogenes)
Procedure: as §1

[10] = system: Enterbacter Cloacea; assay: in vitro antibacterial activity, agar dilution (Enterobacter cloacae)
Procedure: as §1

[11] = system: Salmonella; assay: in vitro antibacterial activity, agar dilution (Salmonella)
Procedure: as §1

[12] = system: Serratia; assay: in vitro antibacterial activity, agar dilution (Serratia)
Procedure: as §1

[13] = system: Shig. sonn; assay: in vitro antibacterial activity, agar dilution (Shig. sonn); settings: strain N9
Procedure: as §1

[14] = system: Proteus morg; assay: in vitro antibacterial activity, agar dilution (Proteus morg)
Procedure: as §1

[15] = system: Proteus incon; assay: in vitro antibacterial activity, agar dilution (Proteus incon)
Procedure: as §1

[16] = system: Proteus rett; assay: in vitro antibacterial activity, agar dilution (Proteus rett)
Procedure: as §1

[17] = system: Citro; assay: in vitro antibacterial activity, agar dilution (Citro)
Procedure: as §1

[18] = system: Acin; assay: in vitro antibacterial activity, agar dilution (Acin)
Procedure: as §1

[19] = system: Pseudomonas; assay: in vitro antibacterial activity, agar dilution (Pseudomonas)
Procedure: as §1

## Cn1c([N+](=O)[O-])cnc1-c1nc(C2=C(C(=O)O)N3C(=O)[C@@H](NC(=O)/C(=N\O)c4csc(N)n4)[C@H]3CC2)cs1 [Example 33, 7β-[(2-Aminothiazol-4-yl)-Z-hydroxyiminoacetylamino]-1-carba-(1-dethia)-3-[2-(4-nitro-3-methylimidazol-2-yl)thiazol-4-yl]-3-cephem-4-carboxylicacid]
[1]; strain S13E
  minimum inhibitory concentration: 4
[1]; strain V41
  minimum inhibitory concentration: .5
[1]; strain X1.1
  minimum inhibitory concentration: .06
[1]; strain X400
  minimum inhibitory concentration: > 128
[2]; strain 222
  minimum inhibitory concentration: 1
[2]; strain 270
  minimum inhibitory concentration: 4
[3]; strain C203
  minimum inhibitory concentration: < .008
[4]
  minimum inhibitory concentration: .015
[5]; strain 2041
  minimum inhibitory concentration: 1
[5]; strain X66
  minimum inhibitory concentration: 128
[6]; res, strain 76
  minimum inhibitory concentration: .015
[6]; sens, strain C.L.
  minimum inhibitory concentration: .06
[7]; strain EC14
  minimum inhibitory concentration: 1
[7]; strain N10
  minimum inhibitory concentration: 2
[7]; strain TEM
  minimum inhibitory concentration: 1
[8]; strain KAE
  minimum inhibitory concentration: 2
[8]; strain X26
  minimum inhibitory concentration: .015
[8]; strain X68
  minimum inhibitory concentration: 1
[9]; strain C32
  minimum inhibitory concentration: 1
[9]; strain EB17
  minimum inhibitory concentration: 1
[10]; strain 265A
  minimum inhibitory concentration: 16
[10]; strain EB5
  minimum inhibitory concentration: 1
[11]; strain 1335
  minimum inhibitory concentration: 2
[11]; strain X514
  minimum inhibitory concentration: .5
[12]; strain SE3
  minimum inhibitory concentration: 16
[12]; strain X99
  minimum inhibitory concentration: 2
[13]
  minimum inhibitory concentration: 2
[14]; strain PR15
  minimum inhibitory concentration: 4
[15]; strain PR33
  minimum inhibitory concentration: .25
[16]; strain C24
  minimum inhibitory concentration: .06
[17]; strain CF17
  minimum inhibitory concentration: 4
[18]; strain AC12
  minimum inhibitory concentration: 128

## CO/N=C(\C(=O)N[C@@H]1C(=O)N2C(C(=O)O)=C(c3csc(-c4ccc(O)c(O)c4)n3)CC[C@H]12)c1csc(N)n1 [Example 40, Sodium 7β-[(2-aminothiazol-4-yl)-Z-methoximinoacetylamino]-1-carba-(1-dethia)-3-2-(3,4-dihydroxyphenyl)thiazol-4-yl-3-cephem-4-carboxylate]
[1]; strain S13E
  minimum inhibitory concentration: 64
[1]; strain S13E, retest
  minimum inhibitory concentration: 64
[1]; strain V41
  minimum inhibitory concentration: 16
[1]; strain V41, retest
  minimum inhibitory concentration: 8
[1]; strain X1.1
  minimum inhibitory concentration: 8
[1]; strain X1.1, retest
  minimum inhibitory concentration: 8
[1]; strain X400
  minimum inhibitory concentration: > 128
[1]; strain X400, retest
  minimum inhibitory concentration: > 128
[2]; strain 222
  minimum inhibitory concentration: 16
[2]; strain 222, retest
  minimum inhibitory concentration: 16
[2]; strain 270
  minimum inhibitory concentration: 32
[2]; strain 270, retest
  minimum inhibitory concentration: 16
[3]; strain C203
  minimum inhibitory concentration: .06
[3]; strain C203, retest
  minimum inhibitory concentration: .125
[4]
  minimum inhibitory concentration: .125
[4]; retest
  minimum inhibitory concentration: .125
[5]; strain 2041
  minimum inhibitory concentration: 16
[5]; strain 2041, retest
  minimum inhibitory concentration: 16
[5]; strain X66
  minimum inhibitory concentration: > 128
[5]; strain X66, retest
  minimum inhibitory concentration: > 128
[6]; res, strain 76
  minimum inhibitory concentration: .015
[6]; res, strain 76, retest
  minimum inhibitory concentration: .03
[6]; sens, strain C.L.
  minimum inhibitory concentration: .125
[6]; sens, strain C.L., retest
  minimum inhibitory concentration: .125
[7]; strain EC14
  minimum inhibitory concentration: .06
[7]; strain EC14, retest
  minimum inhibitory concentration: .06
[7]; strain N10
  minimum inhibitory concentration: .125
[7]; strain N10, retest
  minimum inhibitory concentration: .125
[7]; strain TEM
  minimum inhibitory concentration: .06
[7]; strain TEM, retest
  minimum inhibitory concentration: .03
[8]; strain KAE
  minimum inhibitory concentration: 8
[8]; strain KAE, retest
  minimum inhibitory concentration: 4
[8]; strain X26
  minimum inhibitory concentration: .015
[8]; strain X26, retest
  minimum inhibitory concentration: .03
[8]; strain X68
  minimum inhibitory concentration: .06
[8]; strain X68, retest
  minimum inhibitory concentration: .06
[9]; strain C32
  minimum inhibitory concentration: .5
[9]; strain C32, retest
  minimum inhibitory concentration: .5
[9]; strain EB17
  minimum inhibitory concentration: .03
[9]; strain EB17, retest
  minimum inhibitory concentration: .06
[10]; strain 265A
  minimum inhibitory concentration: 64
[10]; strain 265A, retest
  minimum inhibitory concentration: 32
[10]; strain EB5
  minimum inhibitory concentration: .25
[10]; strain EB5, retest
  minimum inhibitory concentration: .25
[11]; strain 1335
  minimum inhibitory concentration: .06
[11]; strain 1335, retest
  minimum inhibitory concentration: .06
[11]; strain X514
  minimum inhibitory concentration: .03
[11]; strain X514, retest
  minimum inhibitory concentration: .03
[19]; strain PS18
  minimum inhibitory concentration: 64
[19]; strain PS18, retest
  minimum inhibitory concentration: 64
[19]; strain PS72, retest
  minimum inhibitory concentration: 128
[19]; strain X239, retest
  minimum inhibitory concentration: 128
[19]; strain X528
  minimum inhibitory concentration: 8
[19]; strain X528, retest
  minimum inhibitory concentration: 16
[12]; strain SE3
  minimum inhibitory concentration: 1
[12]; strain SE3, retest
  minimum inhibitory concentration: 2
[12]; strain X99
  minimum inhibitory concentration: .25
[12]; strain X99, retest
  minimum inhibitory concentration: .125
[14]; strain PR15
  minimum inhibitory concentration: 4
[14]; strain PR15, retest
  minimum inhibitory concentration: 4
[15]; strain PR33
  minimum inhibitory concentration: .125
[15]; strain PR33, retest
  minimum inhibitory concentration: .25
[16]; strain C24
  minimum inhibitory concentration: .125
[16]; strain C24, retest
  minimum inhibitory concentration: .25
[17]; strain CF17
  minimum inhibitory concentration: 4
[17]; strain CF17, retest
  minimum inhibitory concentration: 4
[18]; strain AC12
  minimum inhibitory concentration: 4
[18]; strain AC12, retest
  minimum inhibitory concentration: 2

## Nc1nc(C2=C(C(=O)O)N3C(=O)[C@@H](NC(=O)[C@H](N)c4ccccc4)[C@H]3CC2)cs1 [Example 41, 7β-(D-phenylglycylamino)-1-carba-(1-dethia)-3-(2-aminothiazol-4-yl)-3-cephem-4-carboxylic acid]
[1]; strain S13E
  minimum inhibitory concentration: 64
[1]; strain V41
  minimum inhibitory concentration: 32
[1]; strain X1.1
  minimum inhibitory concentration: 4
[1]; strain X400
  minimum inhibitory concentration: > 128
[2]; strain 222
  minimum inhibitory concentration: 16
[2]; strain 270
  minimum inhibitory concentration: 32
[3]; strain C203
  minimum inhibitory concentration: 2
[4]
  minimum inhibitory concentration: 2
[5]; strain 2041
  minimum inhibitory concentration: > 128
[5]; strain X66
  minimum inhibitory concentration: > 128
[6]; res, strain 76
  minimum inhibitory concentration: 32
[6]; sens, strain C.L.
  minimum inhibitory concentration: 64
[7]; strain EC14
  minimum inhibitory concentration: 64
[7]; strain N10
  minimum inhibitory concentration: 128
[7]; strain TEM
  minimum inhibitory concentration: 64
[8]; strain KAE
  minimum inhibitory concentration: 128
[8]; strain X26
  minimum inhibitory concentration: 16
[8]; strain X68
  minimum inhibitory concentration: 128
[9]; strain C32
  minimum inhibitory concentration: 128
[9]; strain EB17
  minimum inhibitory concentration: 128
[10]; strain 265A
  minimum inhibitory concentration: > 128
[10]; strain EB5
  minimum inhibitory concentration: 128
[11]; strain 1335
  minimum inhibitory concentration: 128
[11]; strain X514
  minimum inhibitory concentration: 128
[19]; strain PS18
  minimum inhibitory concentration: > 128
[19]; strain PS72
  minimum inhibitory concentration: > 128
[19]; strain X239
  minimum inhibitory concentration: > 128
[19]; strain X528
  minimum inhibitory concentration: > 128
[12]; strain SE3
  minimum inhibitory concentration: 128
[12]; strain X99
  minimum inhibitory concentration: 128
[14]; strain PR15
  minimum inhibitory concentration: 128
[15]; strain PR33
  minimum inhibitory concentration: 128
[16]; strain C24
  minimum inhibitory concentration: > 128
[17]; strain CF17
  minimum inhibitory concentration: > 128
[18]; strain AC12
  minimum inhibitory concentration: > 128
